This note sets out measurements from patent publication US20230000842A1, “METHODS OF TREATING CARTILAGE DISORDERS THROUGH INHIBITION OF CLK AND DYRK” (SAMUMED, LLC, priority 2019, published 2023).

SMILES strings stand for the structures. Bounds are passed on as bounds.

In assay [1] the test system is Wnt pathway activity (SW480 colon carcinoma cells stably expressing the Sp5-Luc reporter). Nature of the assay: Wnt pathway activity screening assay (Sp5-Luc reporter gene assay). The note with it: Homo sapiens, SW480, Table 4; SW480 cells stably expressing Sp5-Luc reporter, 10-point dose-response from 10 μM, 36 to 48 hours.
Assay [2] concerns MMP-3 levels in supernatant of chondrocytes stimulated with IL1-β. Nature of the assay: Chondrocyte protection assay compound screening (MMP-3 LANCE Ultra). The class given is cell-based, human. The note with it: Homo sapiens, Chondrocyte, IL1-β 10 ng/mL overnight, 11-point curves from 3 μM to 0.05 nM; for Emax: read-out: Maximum % Inhibition. The protocol: Human Chondrocyte Cell Culture: Primary human chondrocytes were purchased from Lonza (Walkersville, Md.) and expanded in Chondrocyte Growth Media (CGM, Lonza). Cells between passage 2 and 5 were used for the experiments.
Chondrocytes were plated at 8,000 cells/well in 40 μL/well Chondrocyte Differentiation Medium (Lonza; 500 mL Basal Medium, 25 mL FBS, 0.5 mL GA-1000, 1 mL R3-IGF, 2.5 mL bFGF, 0.5 mL Transferrin, and 1 mL Insulin). After 2 hours of incubation at 37° C. and 5% CO2, IL1-β (Peprotech, Rocky Hill, N.J.) was added to a final concentration of 10 ng/mL. 11 wells in 1 row were left unstimulated for normalization and calculating EC50 values. Cells were incubated at 37° C. and 5% CO2 overnight. Assay plates are spun, 25 μl of supernatant media was collected using (S2 pipettor, Apricot Designs). Cells were lysed using 10 μL of (Cell Titer-Glo, Promega). Luminescent signal detected using an En Vision Multilabel reader (Perkin Elmer). MMP-3 levels were measured in supernatant. Supernatant diluted 1:7 in DMEM. MMP-3 levels in the supernatant were measured using MMP-3 LANCE Ultra detection kit (Perkin Elmer). Briefly, 5 μL of diluted supernatant was transferred to low-volume 384 well plates using (S2 pipettor, Apricot Designs). A standard curve was prepared using MMP-3 analyte (range […]). 1.7 μL of 8× mix of Eu-labelled anti-MMP-3 antibody and ULight labelled anti-MMP-3 antibody was added to the plates using Mantis Liquid handler (Formulatrix). Plates were incubated overnight at room temperature. LANCE signal was detected using an EnVision Multilabel reader (Perkin Elmer), equipped with TR-FRET using excitation wavelength of 320 nm and two emission wavelengths of 615 nm and 665 nm. Data was analyzed according to the kit protocol, using the ratio of […] and the standard curve values were used to calculate the amount of MMP3 in the […] (in pg/ml). The normalized averages (fold change over IL1-β stimulated) for each compound concentration were calculated. EC50 and maximum % inhibition values were calculated using the dose-response nonlinear regression curve-fit in Dotmatics.
(In TR-FRET formats the signal depends on donor and acceptor labels being close together.)

For assay [3], the system named is primary human mesenchymal stem cells (hMSCs). Nature of the assay: Chondrogenesis screening using primary human mesenchymal stem cells. The class given is cell-based. As to conditions: Homo sapiens, Mesenchymal stem cells, hMSC chondrogenesis; for EC50: concentration required to induce 50% levels of chondrogenesis with TGF-β3 as positive control, read-out: Conc (nM) of 50% TGF-β3 activity; for Emax: maximum activity relative to TGF-β3 (10 ng/mL) positive control, read-out: Max. Activity as % TGF-β3 activity. The method in brief:
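Primary hMSCs at passage 3–6 were treated across compound concentrations, with TGF-β3 as positive control. Chondrogenic nodule area per well was normalized to 3 DMSO wells on the same plate (fold over DMSO, 2–3 replicates). EC50, maximum activity and the dose reaching it were derived.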

Assay [4] has as its target CLK2 kinase (Homo sapiens, UniProt P49760). Nature of the assay: CLK2 kinase activity assay (Z-lyte FRET).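 Further: FRET read-out as coumarin to fluorescein emission ratio, unphosphorylated peptide as 0% and phosphorylated peptide as 100% controls, duplicate reactions, non-linear regression fit of dose-response curves.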 It is filed as biochemical. As to conditions: Z-lyte Ser/Thr 6 peptide, 60 μM ATP, 1 h at room temperature.
In assay [5] the target is CLK3 kinase (Homo sapiens, UniProt P49761). Nature of the assay: CLK3 kinase activity assay (Z-lyte FRET).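 Further: kinase activity read as coumarin/fluorescein emission ratio by FRET, unphosphorylated peptide as 0% and phosphorylated peptide as 100% control, values from non-linear regression of dose-response curves.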 The class given is biochemical. The note with it: Z-lyte Ser/Thr 18 peptide, 156 μM ATP, 1 h at room temperature.
Chain of CLK3 kinase (P49761 whole entry): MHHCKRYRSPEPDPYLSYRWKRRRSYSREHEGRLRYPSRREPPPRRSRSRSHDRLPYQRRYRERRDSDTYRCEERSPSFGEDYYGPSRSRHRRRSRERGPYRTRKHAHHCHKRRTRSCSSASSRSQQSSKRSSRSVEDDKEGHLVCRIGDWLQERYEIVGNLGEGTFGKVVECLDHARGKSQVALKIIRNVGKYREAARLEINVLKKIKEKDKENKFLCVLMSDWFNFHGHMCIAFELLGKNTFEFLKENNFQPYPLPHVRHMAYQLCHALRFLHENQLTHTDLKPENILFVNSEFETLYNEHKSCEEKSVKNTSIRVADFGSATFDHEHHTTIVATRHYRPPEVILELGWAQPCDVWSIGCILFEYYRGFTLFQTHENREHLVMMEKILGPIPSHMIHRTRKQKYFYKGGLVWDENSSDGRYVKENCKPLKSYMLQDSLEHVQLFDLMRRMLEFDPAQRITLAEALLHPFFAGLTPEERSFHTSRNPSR

Chain of CLK2 kinase (P49760 whole entry): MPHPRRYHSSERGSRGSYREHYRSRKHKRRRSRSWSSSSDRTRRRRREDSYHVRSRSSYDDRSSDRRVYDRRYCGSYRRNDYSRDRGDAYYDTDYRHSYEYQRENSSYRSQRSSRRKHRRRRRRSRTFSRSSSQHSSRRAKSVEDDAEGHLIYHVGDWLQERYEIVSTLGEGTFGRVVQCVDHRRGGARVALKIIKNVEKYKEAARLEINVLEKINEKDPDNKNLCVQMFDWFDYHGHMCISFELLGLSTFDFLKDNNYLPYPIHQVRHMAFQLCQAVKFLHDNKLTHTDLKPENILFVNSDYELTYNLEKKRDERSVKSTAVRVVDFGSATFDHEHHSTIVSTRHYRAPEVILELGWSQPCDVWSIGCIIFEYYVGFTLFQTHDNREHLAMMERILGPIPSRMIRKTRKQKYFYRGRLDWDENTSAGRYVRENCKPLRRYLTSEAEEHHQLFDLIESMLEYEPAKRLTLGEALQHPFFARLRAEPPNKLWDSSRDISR

`Cc1n[nH]c2ccc(-c3cncc(NC(CO)Cc4cccc(C(F)(F)F)c4)n3)cc12` (centres unmarked) [compound 51] gave an EC50 in assay [1] of 809 nM. In assay [2], the EC50 is not below 3000 nM and the Emax was 48.1%.

The molecule `O=C(Nc1cc2cc(-c3cnco3)cnc2cn1)C1CCNCC1` [compound 641] had an EC50 in assay [1] of more than 10000 nM. For the same molecule, in assay [2], the EC50 worked out at 35.8 nM and the Emax was 48.4%.

Molecule `CN1CCC(C(=O)Nc2cc3cc(-c4cnsc4)cnc3cn2)CC1` [compound 639] yielded an EC50 in assay [1] of more than 10000 nM. For the same molecule, in assay [2], the EC50 was not below 3000 nM and the Emax worked out at 43.7%.

On to `O=C(NC1C[C@@H]1c1ccccc1)c1n[nH]c2ccc(-c3cccnc3)cc12` (some centres unmarked) [compound 59], for which the EC50 in assay [1] came to 1390 nM. In assay [2], the EC50 was found to be 1.6 nM and the Emax was 99.2%.

For `O=C(NC1C[C@@H]1c1ccccc1)c1n[nH]c2ccc(-c3cncc(CN4CCCCC4)c3)cc12` (some centres unmarked) [compound 76], the EC50 in assay [1] came to 1030 nM; in assay [2] it was 0.4 nM. The Emax in assay [2] worked out at 97.9%.

In the case of `CCCCC(=O)Nc1cncc(-c2ccc3[nH]nc(-c4nc5c(-c6cc(F)cc(NCCN(C)C)c6)ccnc5[nH]4)c3n2)c1` [compound 280], the EC50 was more than 10000 nM in assay [1], 10 nM in assay [3], 2 nM in assay [4] and 79 nM in assay [5]. Also, the Emax in assay [3] turned out to be 71.4%.

With `c1cncc(-c2cc3c(-c4nc5c(-c6cccnc6)cccc5[nH]4)n[nH]c3cn2)c1` [compound 179], the EC50 in assay [1] was determined as 92.4 nM; in assay [3] it was 100 nM; in assay [4] it was 11 nM; in assay [5], 969 nM. In addition, the Emax in assay [3] is 93%.

Turning to `FC1(F)CCN(Cc2cncc(-c3ccc4[nH]nc(-c5cc6cnccc6[nH]5)c4n3)c2)C1` [compound 446], the EC50 in assay [1] came to 45 nM; in assay [3], 300 nM; in assay [4], 1 nM; in assay [5], 23 nM. In addition, the Emax in assay [3] was found to be 134%.

For the molecule `CN1CCN(c2nccc3[nH]c(-c4n[nH]c5ccc(-c6cncc(NC(=O)C7CCCCC7)c6)cc45)cc23)CC1` [compound 482], the results for the EC50 in assay [1], in assay [4] and in assay [5] were 5270 nM, 14 nM and 2380 nM, respectively. Moreover, the Emax in assay [3] is 37.8%.

`CN(C)Cc1cncc(-c2ccc3[nH]nc(-c4cc5c(-c6cccc(F)c6)nccc5[nH]4)c3c2)c1` [compound 308]: the EC50 is 2940 nM in assay [1], 7 nM in assay [4] and 83 nM in assay [5]. Also, the Emax in assay [3] is 42%.

In the case of `O=C(Nc1cncc(-c2ccc3[nH]nc(-c4nc5c(-c6ccccc6F)cccc5[nH]4)c3n2)c1)C(F)(F)F` [compound 175], the EC50 in assay [1] was determined as 823 nM; in assay [4], 5 nM; in assay [5], 180 nM. For the same molecule, the Emax in assay [3] was found to be 40.1%.

As to `CN(C)CCNc1cc(F)cc(-c2cccc3[nH]c(-c4n[nH]c5cnc(-c6cncc(N)c6)cc45)cc23)c1` [compound 511], the EC50 in assay [1] was 407 nM; in assay [3], 100 nM; in assay [4] it was 6 nM; in assay [5], 50 nM. The Emax in assay [3] was found to be 180%.

In the case of `CN1CCN(c2cncc3[nH]c(-c4n[nH]c5ccc(-c6cncc(NC(=O)CC(C)(C)C)c6)cc45)cc23)CC1` [compound 479], the EC50 in assay [1] was found to be 3480 nM; in assay [4], 4 nM; in assay [5], 145 nM. Moreover, the Emax in assay [3] came out at 30.8%.

For `CN(C)Cc1cncc(-c2ccc3[nH]nc(-c4nc5c(-c6cccc(F)c6)cccc5[nH]4)c3n2)c1` [compound 136], the EC50 in assay [1] was found to be 637 nM; in assay [3] it was 30 nM; in assay [4], 2 nM; in assay [5], 109 nM. The Emax in assay [3] was determined as 84.6%.

With `CCCC(=O)Nc1cncc(-c2cc3c(-c4cc5c(-c6cc(F)cc(NCCN(C)C)c6)ccnc5[nH]4)n[nH]c3cn2)c1` [compound 512], the EC50 in assay [1] was more than 10000 nM; in assay [3], 10 nM; in assay [4], 14 nM; in assay [5], 94 nM. Also, the Emax in assay [3] was 162%.

With `Fc1cccc(-c2cncc3[nH]c(-c4n[nH]c5ncc(-c6cncc(CN7CCCCC7)c6)cc45)cc23)c1` [compound 313], the EC50 in assay [1] is 3120 nM; in assay [4] it was 18 nM; in assay [5] it was 295 nM. In assay [3], the Emax is 108%.

On to `Cn1cc(-c2cc3c(-c4nc5c(-c6cccc(F)c6)cncc5[nH]4)n[nH]c3cn2)cn1` [compound 157], for which the EC50 in assay [1] came out at 70 nM; in assay [3] it was 100 nM; in assay [4], 2 nM; in assay [5] it was 416 nM. In assay [3], the Emax was determined as 71%.

Regarding `Nc1cncc(-c2ccc3[nH]nc(-c4cc5cccnc5[nH]4)c3c2)c1` [compound 417], the values for the EC50 in assay [1], in assay [4] and in assay [5] were 102 nM, 3 nM and 73 nM, respectively. Also, the Emax in assay [3] was 35.5%.

Consider `c1ncc(-c2ccc3[nH]nc(-c4cc5c(N6CCCCC6)cncc5[nH]4)c3c2)cc1CN1CCCC1` [compound 466], for which the EC50 in assay [1] was determined as 1840 nM; in assay [4], 3 nM; in assay [5], 64 nM. For the same molecule, the Emax in assay [3] is 24.7%.

In the case of `CCNCc1cncc(-c2cnc3[nH]nc(-c4cc5c(-c6cc(F)cc(CNS(C)(=O)=O)c6)nccc5[nH]4)c3c2)c1` [compound 532], the EC50 in assay [1] is more than 10000 nM; in assay [3] it was 300 nM; in assay [4], 3 nM; in assay [5] it was 305 nM. Moreover, the Emax in assay [3] came out at 61.2%.

For the molecule `Fc1ccc(-c2nccc3[nH]c(-c4n[nH]c5cnc(-c6cncc(CN7CCC(F)(F)C7)c6)cc45)cc23)cc1` [compound 316], the EC50 in assay [1] was 291 nM; in assay [3], 10 nM; in assay [4], 7 nM; in assay [5] it was 417 nM. The Emax in assay [3] was 61.2%.

Consider `CN1CCN(c2nccc3[nH]c(-c4n[nH]c5ncc(-c6cncc(NC(=O)C7CCCC7)c6)cc45)cc23)CC1` [compound 481], for which the EC50 in assay [1] was more than 10000 nM; in assay [4], 9 nM; in assay [5] it was 741 nM. Further, the Emax in assay [3] is 30.3%.

Consider `CC(C)(C)C(=O)Nc1cncc(-c2ccc3[nH]nc(-c4nc5c(-c6ccc(F)cc6)cncc5[nH]4)c3n2)c1` [compound 162], for which the EC50 in assay [1] was determined as 2730 nM; in assay [4] it was 8 nM; in assay [5], 9840 nM. In addition, the Emax in assay [3] was found to be 41.8%.

In the case of `Cc1ccncc1-c1ccc2[nH]nc(-c3cc4c(-c5cccnc5)cncc4[nH]3)c2n1` [compound 346], the EC50 is more than 10000 nM in assay [1], 10 nM in assay [3], 4 nM in assay [4] and 133 nM in assay [5]. For the same molecule, the Emax in assay [3] was 149%.

`O=C(CC1CCNCC1)Nc1cncc(-c2ccc3[nH]nc(-c4cc5c(-c6ccccn6)cccc5[nH]4)c3n2)c1` [compound 408]: the EC50 came to 1440 nM in assay [1], 2 nM in assay [4] and 32 nM in assay [5]. Also, the Emax in assay [3] amounted to 8.03%.

As to `c1cncc(-c2cnc3[nH]nc(-c4cc5cccnc5[nH]4)c3c2)c1` [compound 411], the values for the EC50 in assay [1], in assay [4] and in assay [5] were 1060 nM, 5 nM and 351 nM, respectively. In addition, the Emax in assay [3] amounted to 11%.

Turning to `Cc1ncc(-c2cnc3[nH]nc(-c4cc5c(-c6ccncc6)cncc5[nH]4)c3c2)n1C` [compound 406], the EC50 in assay [1] is more than 10000 nM; in assay [4], 3 nM; in assay [5], 227 nM. In assay [3], the Emax is 194%.
